Test results from US10786475B2, “Method for preventing, treating, or improving fatty liver by administering effective amounts of azelaic acid to a subject” (Korea University Research and Business Foundation, priority 2018, dated 2020).

Tests used:
Hepa1c1c-7 cells [1] = assay: MTT cytotoxicity assay in Hepa1c1c-7 cells; format: cell-based, mouse; details: 0 to 500 μM AzA, 24 hours, compared with control group
3T3-L1 adipose cells = assay: MTT cytotoxicity assay in 3T3-L1 adipose cells; format: cell-based, mouse; details: 0 to 500 μM AzA, compared with control group
Method: The cytotoxicity test for 3T3-L1 adipose cells was performed by a tetrazolium-based colorimetric (MTT) method. The MTT assay is a method for evaluating cytotoxicity by measuring absorbance at a suitable wavelength (usually at 500 to 600 nm) based on a metabolic process, in which a dehydrogenase in mitochondria of intact cells reduces a yellow water-soluble tetrazolium salt [3-(4,5-dimethylthiazol-2-yl)-2-5-diphenyltetrazolium bromide] (MTT) into a water-insoluble dark violet MTT formazan crystal.

Olfr544 = assay: cAMP, calcium and PKA activity in Hepa1c1c-7 cells (Olfr544 activation); format: cell-based, mouse
Method: A cAMP assay estimates a production level of cAMP, which is a secondary messenger material of a GPCR receptor activated by a ligand, using a cAMP standard calibration curve. A 96 well-plate included in a cAMP Assay ELISA kit (Enzo Life science, New York, USA) was coated with a GxR IgG antibody, and cAMP in a blue solution for plotting the standard calibration curve, binds with alkaline phosphatase and turns into yellow color by the rabbit antibody. When pNpp substrate is added into the wells bound with cAMP, alkaline phosphatase is activated to cause the color changes, and a cAMP concentration may be measured through colorimetric quantification at a wavelength of 405 nm. In this experiment, Hepa1c1c-7 cells were seeded on a 96-well plate at 1×10^4 cells/well for differentiation, and treated with 50 μM of AzA and 1 μM of Forskolin (FSK), which is a positive control, for 18 hours, and then a cAMP concentration was measured according to the above-described method.

Hepa1c1c-7 cells [2] = assay: Fatty acid oxidation rate ([1-14C]palmitate) in Hepa1c1c-7 cells; format: cell-based, mouse; details: 100 μM AzA, 24 hours, compared with control group
Method: Hepa1c1c-7 cells were seeded on a 24-well plate at 5×10^5 cells/mL, cultured for 24 hours, treated with 100 μM of AzA, and then incubated for 24 hours. Afterward, [1-^14C]palmitate was accumulated, the cells were cultured for one hour, and the medium was collected to extract CO2 using NaOH and HCl, followed by measuring ^14CO2 using a liquid scintillation counter. As a positive control, GW7647 (1 μM) was used.

Olfr544 KO mouse = assay: Fatty liver inhibitory effect in high-fat diet Olfr544 KO mouse; format: in vivo
Method: Mice used in the example, which were an eight-week-old C57BL/6J model, were purchased from Samtako, and Olfr544 KO mice were manufactured by Macrogen based on the C57BL/6J model using a CRISPR/Cas9 system. All experiments performed in the example are compliant to a protocol approved by the Animal Experiment Ethics Committee at Korea University (Protocol No. KUIACUC-20170322-1). The mice were acclimated at 21 to 25° C. under a 50 to 60% relative humidity condition for 12 hours before being used in the experiments, and a total of 18 mice were treated with an AzA diluted with distilled water at 50 mg/kg of body weight and distilled water as a control through oral administration for 6 weeks. The mice used in the experiments were fed a high-fat diet containing 60% fat (D12492, Research Diets, Inc) to induce fatty liver, and then a body weight was measured every week. […] An oxygen consumption amount (VO2) and a carbon dioxide production amount (VCO2) were analyzed using an Oxylet Physiocage System (Panlab/Harvard apparatus, Cornella, Spain) and suiteMETABOLISM (V2.2.01, Panlab) software. A respiratory quotient (RQ) was calculated using the formula VCO2/VO2, and energy expenditure was analyzed using the formula EE=VO2×1.11×(3.815+1.232×RQ). The oxidation of a free fatty acid was calculated using the formula (1.6946×VO2)−(1.7012×VCO2). An AzA (100 mg/kg) was intraperitoneally administered, and then concentration of a glycerol, which is a body fat decomposition marker, was measured. […] To measure glucose resistance and insulin resistance, a glucose and insulin resistance test was performed under a condition, in which glucose ([…]) and insulin (0.35 unit/kg/bw) are administered to a mouse.

mice fed a high-fat diet = assay: Comparison of AzA-added and barley-added high-fat diets in mice; format: in vivo, mouse; details: 6 weeks
Method: A diet, in which an AzA (0.5 g/kg diet) or 10% (w/w) barley was added to a high-fat diet, was administered to mice for 6 weeks.

[3] = test system: 3T3-L1 cells stimulated by LPS; assay: IL-6 and TNF-α gene expression (qPCR) in LPS-treated 3T3-L1 adipose cells; format: cell-based, mouse; details: LPS-treated 3T3-L1 cells differentiated into adipose cells, compared with control group
Method: 3T3-L1 cells, mouse pre-adipose cells were purchased from the Korean Cell Line Bank (Seoul, Korea). The 3T3-L1 cells were cultured in Dulbecco's modified Eagle's medium (DMEM) supplemented with 10% heat-inactivated bovine calf serum (Gibco, Grand Island, N.Y., USA) and 1% PEST under 5% CO2 at 37° C. The 3T3-L1 pre-adipose cells were seeded on a 6-well plate at 1×10^6 cells/well to differentiate into adipose cells, and cultured to a density of 100%. After 2 days, the cultured 3T3-L1 pre-adipose cells were incubated in DMEM containing 10% fetal bovine serum (FBS) and an MDI solution (0.5 mM IBMX, 0.5 μM dexamethasone and 10 μg/mL insulin) for 3 days. Subsequently, the treated cells were cultured in DMEM containing 10% FBS and 10 μg/mL insulin, and the formation of lipid droplets in cells and the degree thereof were confirmed, and based on this, the differentiation into adipose cells was confirmed. To confirm the expression of IL-6 and TNF-α genes, qRT-PCR was performed by the same methods described in Examples 7-4 and 7-5.

[4] = Olfr544 KO mouse, HFD and AzA for 6 weeks
[5] = AzA (0.5 g/kg diet) added to high-fat diet
[6] = AzA (0.5 g/kg diet) or 10% (w/w) barley added to high-fat diet, between groups

O=C(O)CCCCCCCC(=O)O [AzA, nonanedioic acid]
cytotoxicity (MTT assay) (Hepa1c1c-7 cells [1]): toxicity was not exhibited at every concentration
cytotoxicity (MTT assay) (3T3-L1 adipose cells): toxicity was not exhibited at every concentration
cAMP concentration in the cells (Olfr544; 50 μM AzA, 18 hours, compared with control group): significantly increased
PKA activity (Olfr544; AzA treatment): significantly increased
calcium concentration in the cells (Olfr544; compared with control group): significantly increased
fatty acid oxidation rate (Hepa1c1c-7 cells [2]): significantly increased
glucose resistance (glucose resistance test) (Olfr544 KO mouse; KO mouse): not observed
insulin resistance (insulin resistance test) (Olfr544 KO mouse; KO mouse): not observed
abdominal fat (microCT) (Olfr544 KO mouse; KO mouse, AzA 50 mg/kg/day): no such effects
total fat amount (microCT) (Olfr544 KO mouse; KO mouse, AzA 50 mg/kg/day): no such effects
blood glycerol concentration (body fat decomposition marker) (Olfr544 KO mouse; KO mouse, AzA 100 mg/kg intraperitoneally): no effect
oxidation of free fatty acids (indirect calorimetric analysis) (Olfr544 KO mouse; [4]): these effects were not shown
respiratory quotient (indirect calorimetric analysis) (Olfr544 KO mouse; [4]): these effects were not shown
ALT concentration (hepatotoxicity marker) (mice fed a high-fat diet; [5]): decreased
LDL cholesterol concentration (mice fed a high-fat diet; [5]): significantly decreased
triglyceride concentration in liver tissue (fatty liver lesion marker) (mice fed a high-fat diet; [5]): significantly decreased
HDL cholesterol concentration (mice fed a high-fat diet; [6]): no differences
fasting blood glucose concentration (mice fed a high-fat diet; [6]): no differences
total cholesterol concentration (mice fed a high-fat diet; [6]): no differences
triglyceride concentration (blood) (mice fed a high-fat diet; [6]): no differences
body weight (mice fed a high-fat diet; AzA (0.5 g/kg diet) or 10% (w/w) barley added to high-fat diet, versus high-fat diet group): significantly decreased
IL-6 gene expression [3]: significantly decreased
